The test system of data set [1] is SARS-CoV-2 strain BavPat1. Conditions: Vero-E6 cells.
The test system of data set [2] is SARS-CoV-2 strain BavPat1. Description: microbe, parasite or virus in culture. The conditions noted are these: Severe acute respiratory syndrome coronavirus 2, Vero C1008, 48 h.
A short description of data set [3]: Cytotoxicity in VeroE6 cells (CellTiter Blue). Conditions: African green monkey. A general note: Alamar Blue is a resazurin reagent that responds to reducing activity.
The nature of data set [4]: in vitro. The conditions noted are these: African green monkey.
For data set [5], the system named is SARS-CoV-2 strain BavPat1. The data set can be described thus: microbe, parasite or virus in culture. The data set is classed as cell-based. Conditions: Severe acute respiratory syndrome coronavirus 2; VeroE6-TMPRSS2+ cells, pilot study.
A short description of data set [6]: in vitro. The conditions noted are these: human.
The subject of data set [7] is SARS-CoV-2 strain BavPat1. The data set can be described thus: SARS-CoV-2 replication inhibition in Caco-2 cells (viral RNA RT-qPCR). The conditions noted are these: for SI = CC50/EC50: Caco-2 cells; for pEC50 / EC90: Severe acute respiratory syndrome coronavirus 2, Caco-2, 48 h. (In general: Quantitative PCR measures a nucleic acid by following its amplification.)

Consider 10 compounds from patent US20240009263A1, “COMPOUNDS FOR TREATING ENVELOPED VIRUS INFECTIONS” (priority 2020, published 2024).

By pEC50 is commonly meant −log10 of the EC50, conventionally taken in molar units. Usually EC90 stands for the concentration needed for an effect of 90%.

pEC50: −log10 of the molar value. Like-named read-outs stand apart in the source and are kept apart here. Non-standard residues stand in square brackets, D forms with d. Residues, ends and D or L forms follow the SMILES beside them. *: point of attachment. Nva = CCC[C@H](N)C(=O)O; Cbz = O=C(OCc1ccccc1)*

For `CC(C)C[C@@H](C=O)NC(=O)[C@H](CC(C)C)NC(=O)[C@H](CC(C)C)NC(=O)c1cnccn1` [Compound 7], in data set [1], the “SI = CC50/EC50” value is more than 2.94; the “balance between virus inhibition and cytotoxicity (selectivity index), in words” value is given as “advantageous balance”. In data set [2], this compound showed a negative logarithm of the EC50 (pEC50) of 6.17 and an EC90 of 1930 nM. In data set [3], this compound returned a CC50 at 2 days of more than 2000 nM.
With `CC(=O)N[C@@H](CC(C)C)C(=O)N[C@@H](CC(C)C)C(=O)N[C@H](C=O)CC(C)C` [Compound 3] (Ac-Leu-Leu-Leu-aldehyde), in data set [1], the “SI = CC50/EC50” value is more than 45.2; the “balance between virus inhibition and cytotoxicity (selectivity index), in words” value is given as “best selectivity index”. Further, the CC50 at 2 days in data set [4] turned out to be 13600 nM. In data set [2], the pEC50 is more than 6.52 and it took 1570 nM to reach the 90% level (EC90).
As to `CC(C)C[C@@H](C=O)NC(=O)[C@H](CC(C)C)NC(=O)[C@H](CC(C)C)NC(=O)OCc1ccccc1` [Compound 1] (Cbz-Leu-Leu-Leu-aldehyde), the values for the pEC50 in data set [5], in data set [2] and in data set [7] were 6.07, 6.92 and 6.92, respectively. In addition, the results for the 90% effect concentration (EC90) in data set [5], in data set [2] and in data set [7] were 3300 nM, 500 to 1000 nM and 130 nM, respectively. For the same compound, the “SI = CC50/EC50” value was determined as 22.8 in data set [1] and 1.89 in data set [7]. For the same compound, in data set [1], the “balance between virus inhibition and cytotoxicity (selectivity index), in words” value was “advantageous balance”. In addition, the CC50 at 2 days is 2790 nM in data set [4] and 230 nM in data set [6].
For `CC(C)C[C@H](NC(=O)[C@H](Cc1ccccc1)NC(=O)c1cnccn1)B(O)O` [Compound 9, reference compound], in data set [1], the “SI = CC50/EC50” value came out at 0.22; the “balance between virus inhibition and cytotoxicity (selectivity index), in words” value is “not favourable”. The CC50 at 2 days in data set [4] stood at 230 nM. In data set [2], the pEC50 is 5.98 and the 90% effect level (EC90) was put at 21500 nM.
For the compound `CCC(CC)COC(=O)[C@H](C)N[P@](=O)(OC[C@H]1O[C@@](C#N)(c2ccc3c(N)ncnn23)[C@H](O)[C@@H]1O)Oc1ccccc1` [Rem, Remdesivir, reference compound], the 90% effect level in data set [5] (EC90) was put at 1660 nM. In data set [2], this compound gave a pEC50 of 5.66 and an EC90 of 2450 nM.
Consider `CC(C)C[C@H](NC(=O)OCc1ccccc1)C(=O)N[C@@H](CC(C)C)C(=O)N[C@H](C=O)Cc1ccccc1` [Compound 5] (Cbz-Leu-Leu-Phe-aldehyde), for which the pEC50 in data set [5] is 5.75; in data set [2], 7.22; in data set [7], 7.05. The EC90 in data set [5] stood at 2300 nM; in data set [2], 1930 nM; in data set [7], 470 nM. In addition, the figures for the “SI = CC50/EC50” value in data set [1] and in data set [7] were more than 33.3 and 5.13, respectively. The “balance between virus inhibition and cytotoxicity (selectivity index), in words” value in data set [1] is listed as “best selectivity index”. Also, the CC50 at 2 days in data set [4] was more than 2000 nM; in data set [6], 480 nM.
With `CCC[C@@H](C=O)NC(=O)[C@H](CC(C)C)NC(=O)[C@H](CC(C)C)NC(=O)OCc1ccccc1` [Compound 2] (Cbz-Leu-Leu-[Nva]-aldehyde), in data set [1], the “SI = CC50/EC50” value is more than 33.3; the “balance between virus inhibition and cytotoxicity (selectivity index), in words” value is “best selectivity index”. This compound gave a CC50 at 2 days in data set [4] of more than 2000 nM. This compound also gave a CC50 at 2 days in data set [6] of 450 nM. Also, in data set [2], the pEC50 is 7.22 and the concentration for an effect of 90% (EC90) was 160 nM. For the same compound, in data set [7], the “SI = CC50/EC50” value stood at 3.50, the pEC50 was 6.89 and the EC90 worked out at 630 nM.
In the case of `CC(C)C[C@@H](C=O)NC(=O)[C@H](CC(C)C)NC(=O)[C@H](CC(C)C)NC(=O)Cc1ccc(F)cc1F` [Compound 8], in data set [1], the “SI = CC50/EC50” value is on record as more than 3.84; the “balance between virus inhibition and cytotoxicity (selectivity index), in words” value was “advantageous balance”. Further, the CC50 at 2 days in data set [4] was more than 2000 nM. Further, in data set [2], the pEC50 is 6.28 and the EC90 is 1280 nM.
In the case of `CC(C)C[C@@H](C=O)NC(=O)[C@H](CC(C)C)NC(=O)[C@H](Cc1ccccc1)NC(=O)OCc1ccccc1` [Compound 4] (Cbz-Phe-Leu-Leu-aldehyde), in data set [5], the negative logarithm of the EC50 (pEC50) was less than 5.70 and the concentration for an effect of 90% (EC90) was more than 2000 nM. Besides, in data set [1], the “SI = CC50/EC50” value was 49.69; the “balance between virus inhibition and cytotoxicity (selectivity index), in words” value is “best selectivity index”. In data set [4], this compound showed a CC50 at 2 days of 6460 nM. For the same compound, in data set [2], the negative-log EC50 (pEC50) is 6.89 and the EC90 stood at 600 nM.
`CC(C)C[C@@H](C=O)NC(=O)[C@H](Cc1ccccc1)NC(=O)[C@H](CC(C)C)NC(=O)OCc1ccccc1` [Compound 6] (Cbz-Leu-Phe-Leu-aldehyde): in data set [5], the pEC50 was 6.85 and the 90% effect concentration (EC90) was more than 2000 nM. Further, in data set [1], the “SI = CC50/EC50” value turned out to be 12.92; the “balance between virus inhibition and cytotoxicity (selectivity index), in words” value is “best selectivity index”. For the same compound, in data set [4], the CC50 at 2 days came to 1680 nM. For the same compound, in data set [2], the pEC50 was 6.51 and it took 11200 nM to reach the 90% level (EC90).
